Like-named read-outs stand apart in the source and are kept apart here.
Target: T1, F508delCFTR (Homo sapiens, UniProt P13569, DEL508-508)
T1 construct: expressed in transfected cells; host or cells: CFBE41o- human lung-derived epithelial cells (CFBE4lo-F508delCFTR-HRP), doxycycline-inducible
Test: Cell Surface Expression-Horse Radish Peroxidase (CSE-HRP) Assay;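 as to Maximum % activity (with co-corrector): co-corrector and positive control are both the same reference corrector at 2 µM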;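 as to Maximum % activity (without co-corrector): percent of the 2 µM on-plate positive control corrector response above DMSO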
Assay type: cell-based
Conditions: for Maximum % activity (with co-corrector) / Emax: maximum at any tested concentration, normalized to on-plate positive control; for Emax: read-out: Maximum % activity (without co-corrector)
Protocol: Cell Surface Expression-Horse Radish Peroxidase (CSE-HRP) Assay;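 as to Maximum % activity (with co-corrector): co-corrector and positive control are both the same reference corrector at 2 µM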;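 as to Maximum % activity (without co-corrector): percent of the 2 µM on-plate positive control corrector response above DMSO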
The development was achieved by expressing the F508delCFTR mutation along with a horseradish peroxidase (HRP) in the fourth exofacial loop, and then measuring the HRP activity using luminescence readout from these cells, CFBE4lo-F508delCFTR-HRP, that were incubated overnight with the test corrector compounds, either without or with the co-corrector. […] The test compounds were then added either without or with a co-corrector at the required concentrations and further incubated for 18-24 hours at 33° C. The highest concentration tested was 20 μM with an 8-point concentration response curve using a 3-fold dilution in both the test compound without or with the co-corrector. Three replicate plates were run to determine one EC50. All plates contained negative controls (dimethyl sulfoxide, DMSO) and positive control (2 μM of 3-[(2R,4R)-4-({[1-(2,2-difluoro-1,3-benzodioxol-5-yl)cyclopropyl]carbonyl}amino)-7-methoxy-3,4-dihydro-2H-chromen-2-yl]benzoic acid) as well as on-plate concentration response of the positive control. […] The raw counts from the experiment were analyzed using Accelrys® Assay Explorer v3.3.
1−[3*SDPositive Control+3*SDNegative Control/Absolute(MeanPositive Control−MeanNegative Control)]
wherein “SD” is standard deviation.
The % activity measured at each of the 8 test concentrations of the test compound added either without or with a co-corrector (2 μM of 3-[(2R,4R)-4-({[1-(2,2-difluoro-1,3-benzodioxol-5-yl)cyclopropyl]carbonyl}amino)-7-methoxy-3,4-dihydro-2H-chromen-2-yl]benzoic acid) was normalized to the on-plate positive control using the following formulae:
% activity(Test compound without co-corrector)=[(test compound without co-corrector response−DMSO response)/(positive control response−DMSO response)]*100
% activity(Test compound with co-corrector)=[(test compound with co-corrector response−DMSO response)/(positive control response−DMSO response)]*100
The maximum % activity achieved for the test compound either without or with a co-corrector at any tested concentration is presented in Table 4 along with the respective EC50's calculated using the following general sigmoidal curve with variable Hill slope equation (described as Model 42 in the Accelrys® Assay Explorer v3.3 software):
General sigmoidal curve with concentration, response, top, bottom, EC50 and Hill slope. This model describes a sigmoidal curve with an adjustable baseline, a. The equation can be used to fit curves where response is either increasing or decreasing with respect to the independent variable, “x”.
“x” is a concentration of drug under test. “y” is the response. “a” is the maximum response, and “d” is the minimum response “c” is the inflection point (EC50) for the curve. That is, “y” is halfway between the lower and upper asymptotes when x=c. “b” is the slope-factor or Hill coefficient. The sign of b is positive when the response increases with increasing dose and is negative when the response decreases with increasing dose (inhibition).

[1] = CSE-HRP, test compound without co-corrector, read-out: EC50 (without co-corrector)
[2] = CSE-HRP, with co-corrector (2 μM of 3-[(2R,4R)-4-({[1-(2,2-difluoro-1,3-benzodioxol-5-yl)cyclopropyl]carbonyl}amino)-7-methoxy-3,4-dihydro-2H-chromen-2-yl]benzoic acid), read-out: EC50 (with co-corrector)
[3] = CSE-HRP, with co-corrector (2 μM)
[4] = test compound without co-corrector
[5] = test compound without co-corrector, read-out: EC50 (without co-corrector)
[6] = with co-corrector (2 μM of 3-[(2R,4R)-4-({[1-(2,2-difluoro-1,3-benzodioxol-5-yl)cyclopropyl]carbonyl}amino)-7-methoxy-3,4-dihydro-2H-chromen-2-yl]benzoic acid), read-out: EC50 (with co-corrector)
[7] = with co-corrector (2 μM of 3-[(2R,4R)-4-({[1-(2,2-difluoro-1,3-benzodioxol-5-yl)cyclopropyl]carbonyl}amino)-7-methoxy-3,4-dihydro-2H-chromen-2-yl]benzoic acid)

T1 sequence (P13569 with tags, fused parts or gaps DEL508-508): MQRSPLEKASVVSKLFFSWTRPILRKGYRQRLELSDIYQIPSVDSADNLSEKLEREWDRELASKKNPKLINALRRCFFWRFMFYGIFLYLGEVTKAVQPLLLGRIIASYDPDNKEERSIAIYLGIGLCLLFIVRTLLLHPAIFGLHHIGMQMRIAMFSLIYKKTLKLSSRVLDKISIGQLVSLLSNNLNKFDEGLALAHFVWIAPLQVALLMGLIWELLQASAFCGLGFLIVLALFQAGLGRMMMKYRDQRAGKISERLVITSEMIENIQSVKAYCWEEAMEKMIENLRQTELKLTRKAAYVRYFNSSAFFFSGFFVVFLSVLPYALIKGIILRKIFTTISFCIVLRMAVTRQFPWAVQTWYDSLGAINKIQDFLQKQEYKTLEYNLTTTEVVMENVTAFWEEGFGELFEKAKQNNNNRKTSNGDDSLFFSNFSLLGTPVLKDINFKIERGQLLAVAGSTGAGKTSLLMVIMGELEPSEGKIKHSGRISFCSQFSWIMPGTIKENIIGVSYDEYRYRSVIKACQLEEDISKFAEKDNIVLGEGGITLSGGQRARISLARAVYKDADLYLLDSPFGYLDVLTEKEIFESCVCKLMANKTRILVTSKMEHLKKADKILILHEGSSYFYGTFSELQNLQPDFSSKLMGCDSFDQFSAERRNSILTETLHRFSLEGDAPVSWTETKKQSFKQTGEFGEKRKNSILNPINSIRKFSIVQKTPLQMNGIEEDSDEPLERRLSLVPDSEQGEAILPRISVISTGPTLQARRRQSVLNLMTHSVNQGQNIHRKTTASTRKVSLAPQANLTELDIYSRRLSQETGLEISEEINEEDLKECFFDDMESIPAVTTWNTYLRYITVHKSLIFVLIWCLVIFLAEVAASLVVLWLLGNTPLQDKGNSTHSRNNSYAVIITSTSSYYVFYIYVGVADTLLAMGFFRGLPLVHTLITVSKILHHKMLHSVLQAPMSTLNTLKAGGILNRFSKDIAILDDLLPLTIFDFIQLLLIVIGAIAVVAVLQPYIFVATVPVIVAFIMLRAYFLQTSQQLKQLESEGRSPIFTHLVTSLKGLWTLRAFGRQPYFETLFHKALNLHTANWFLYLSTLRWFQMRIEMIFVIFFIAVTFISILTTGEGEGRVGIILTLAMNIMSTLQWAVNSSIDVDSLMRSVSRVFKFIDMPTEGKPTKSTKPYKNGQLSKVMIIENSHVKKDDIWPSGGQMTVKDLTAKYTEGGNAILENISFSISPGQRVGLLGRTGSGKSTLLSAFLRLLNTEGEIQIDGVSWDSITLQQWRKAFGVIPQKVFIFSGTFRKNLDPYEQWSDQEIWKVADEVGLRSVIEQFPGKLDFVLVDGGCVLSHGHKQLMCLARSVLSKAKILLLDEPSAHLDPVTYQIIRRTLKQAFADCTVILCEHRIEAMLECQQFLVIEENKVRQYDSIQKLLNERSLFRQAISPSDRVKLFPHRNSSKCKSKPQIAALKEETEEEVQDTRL

Compound | EC50 [1] [nM] | EC50 [2] [nM] | Maximum % activity (with co-corrector) [3] | Emax (CSE-HRP, without co-corrector) [%] | Emax [4] [%] | EC50 [5] [nM] | EC50 [6] [nM] | Maximum % activity (with co-corrector) (with co-corrector (2 μM)) | Maximum % activity (with co-corrector) [7] | Emax (without co-corrector) [%]
COc1ccc(C2CCC2)cc1CN[C@H]1[C@H](C(C)(C)OC)[C@@H](C(=O)O)N(C(=O)C2CCCCC2)[C@H]1c1ccccc1 [II-255] | < 1000 | < 1000 | +++ (≥350) | > 200 | – | – | – | – | – | –
COc1ccc(C(F)(F)F)cc1CN[C@H]1[C@H](C(C)(C)C)[C@@H](C(=O)O)N(C(=O)C2CCCCC2)[C@H]1c1ccccc1F [II-260] | 1000 to 10000 | 1000 to 10000 | +++ (≥350) | 100 to 200 | – | – | – | – | – | –
CCOc1cc2c(cc1CN[C@H]1[C@H](C(C)(C)C)[C@@H](C(=O)O)N(C(=O)C3CCCCC3)[C@H]1c1ccccc1)CCC2 [II-129] | 1000 to 10000 | 1000 to 10000 | +++ (≥350) | 100 to 200 | – | – | – | – | – | –
COc1ccc(C2CCOCC2)cc1CN[C@H]1[C@H](C(C)(C)C)[C@@H](C(=O)O)N(C(=O)C2CCCCC2)[C@H]1c1ccccc1 [II-340] | – | – | – | – | 100 to 200 | 1000 to 10000 | 1000 to 10000 | – | +++ (≥350) | –
COc1ncc(C(C)c2ccccc2)cc1CN[C@H]1[C@H](C(C)(C)C)[C@@H](C(=O)O)N(C(=O)C2CCCCC2)[C@H]1c1ccccc1 (stereo partly drawn) [Example I-75] | – | – | – | – | – | < 1000 | < 1000 | +++ (≥350) | – | 100 to 200
COc1ccc(C23CC(C2)C3)cc1CN[C@H]1[C@H](C(C)(C)C)[C@@H](C(=O)O)N(C(=O)C2CCCCC2)[C@H]1c1ccccc1F [II-517] | – | – | – | – | > 200 | 1000 to 10000 | < 1000 | – | +++ (≥350) | –
COc1ccc(C(C)(C)C)cc1CN[C@H]1[C@H](C(C)(C)C)[C@@H](C(=O)O)N(C(=O)c2ccc(Oc3ccccn3)cc2)[C@H]1c1ccccc1 [II-224] | 1000 to 10000 | < 1000 | +++ (≥350) | > 200 | – | – | – | – | – | –
COC(=O)N1[C@H](C(=O)O)[C@@H](C(C)(C)C)[C@H](NCc2cc(C(C)(C)C)ccc2OC)[C@@H]1c1ccccc1 [II-388] | – | – | – | – | > 200 | 1000 to 10000 | 1000 to 10000 | – | +++ (≥350) | –
COc1ncc(C2CCC2)cc1CN[C@H]1[C@H](C(C)(C)C)[C@@H](C(=O)O)N(C(=O)[C@@H]2CCCCO2)[C@H]1c1ccccc1C(C)C [Example 73, (2S,3S,4S,5S)-3-tert-butyl-4-{[(5-cyclobutyl-2-methoxypyridin-3-yl)methyl]amino}-1-[(2S)-oxane-2-carbonyl]-5-[2-(propan-2-yl)phenyl]pyrrolidine-2-carboxylic acid] | – | – | – | – | – | < 1000 | < 1000 | +++ (≥350) | – | > 200
COc1ccc(C(C)(C)C)cc1CN[C@H]1[C@H](C(C)(C)C)[C@@H](C(=O)O)N(C(=O)CC2(O)CCC2)[C@H]1c1ccccc1 [Example I-148] | – | – | – | – | – | 1000 to 10000 | 1000 to 10000 | +++ (≥350) | – | > 200
COc1cc(C(F)(F)F)ccc1CN[C@H]1[C@H](C(C)(C)C)[C@@H](C(=O)O)N(C(=O)OC(C)C)[C@H]1c1cccnc1N1CCC1 [Example I-275] | 1000 to 10000 | 1000 to 10000 | +++ (≥350) | > 200 | – | – | – | – | – | –
COc1ccc(C(C)(C)C)cc1CN[C@H]1[C@H](C(C)(C)C)[C@@H](C(=O)O)N(C(=O)C2CC(C)CC(C)C2)[C@H]1c1cccnc1N(C)C (stereo partly drawn) [II-469] | – | – | – | – | 100 to 200 | 1000 to 10000 | 1000 to 10000 | – | +++ (≥350) | –
CC(C)(C)[C@H]1[C@H](NCc2cccc(C(F)(F)F)c2)[C@H](c2ccccc2)N(C(=O)C2CCCCC2)[C@@H]1C(=O)O [II-122] | 1000 to 10000 | 1000 to 10000 | ++ (≥150 and <350) | < 100 | – | – | – | – | – | –
COc1ccc(C(C)(C)C)cc1CN[C@H]1[C@H](C(C)(C)C)[C@@H](C(=O)O)N(C(=O)C2CC2)[C@H]1c1ccccc1 [II-333] | – | – | – | – | > 200 | 1000 to 10000 | 1000 to 10000 | – | +++ (≥350) | –
COc1ccc(C(C)(C)C)cc1CN[C@H]1[C@H](C(C)(C)C)[C@@H](C(=O)O)N(C(=O)C2CC3C=CC2C3)[C@H]1c1ccccc1 (stereo partly drawn) [II-211] | 1000 to 10000 | 1000 to 10000 | +++ (≥350) | > 200 | – | – | – | – | – | –
COc1ncc(C2CCC2)cc1CN[C@H]1[C@H](C(C)(C)C)[C@@H](C(=O)O)N(C(=O)[C@H]2CCCCO2)[C@H]1c1ccccc1C(C)C [Example 72, (2S,3S,4S,5S)-3-tert-butyl-4-{[(5-cyclobutyl-2-methoxypyridin-3-yl)methyl]amino}-1-[(2R)-oxane-2-carbonyl]-5-[2-(propan-2-yl)phenyl]pyrrolidine-2-carboxylic acid] | – | – | – | – | – | 1000 to 10000 | < 1000 | +++ (≥350) | – | > 200

Other lines, results leading:

EC50 [1] [nM] | EC50 [2] [nM] | Maximum % activity (with co-corrector) [3] | Emax (CSE-HRP, without co-corrector) [%] | Emax [4] [%] | EC50 [5] [nM] | EC50 [6] [nM] | Maximum % activity (with co-corrector) (with co-corrector (2 μM)) | Maximum % activity (with co-corrector) [7] | Emax (without co-corrector) [%] | Compound
– | – | – | – | 100 to 200 | < 1000 | < 1000 | +++ (≥350) | – | – | COc1ncc(C(F)(F)F)cc1CN[C@H]1[C@H](C(C)(C)C)[C@@H](C(=O)O)N(C(=O)C2CC(C)CC(C)C2)[C@H]1c1ccccc1 (stereo partly drawn) [III-201]
– | – | – | – | < 100 | > 10000 | 1000 to 10000 | – | ++ (≥150 and <350) | – | CC(C)(C)[C@@H]1[C@@H](NCc2cccc(OC3CCOCC3)n2)[C@@H](c2ccccc2)N(C(=O)C2CCCCC2)[C@H]1C(=O)O (racemic) [III-10]
– | – | – | – | < 100 | > 10000 | 1000 to 10000 | ++ (≥150 and <350) | – | – | COc1cc(C(F)(F)F)ccc1CN[C@@H]1[C@@H](C(C)(C)C)[C@H](C(=O)O)N(C(=O)[C@H]2CCCCO2)[C@@H]1c1ccccc1 [III-117]
– | – | – | – | > 200 | < 1000 | < 1000 | +++ (≥350) | – | – | CCC(CC)Cc1ccc(OC)c(CN[C@H]2[C@H](C(C)(C)C)[C@@H](C(=O)O)N(C(=O)C3CCCCC3)[C@H]2c2ccccc2)c1 [III-170]
– | – | – | – | > 200 | 1000 to 10000 | 1000 to 10000 | – | +++ (≥350) | – | COc1ccc(C(F)(F)F)cc1CN[C@@H]1[C@@H](C(C)(C)C)[C@H](C(=O)O)N(C(=O)C2C3COCC32)[C@@H]1c1ccccc1N(C)C (mixture of isomers) [III-71]
– | – | – | – | < 100 | > 10000 | 1000 to 10000 | – | ++ (≥150 and <350) | – | CC(C)(C)[C@@H]1[C@@H](NCc2cc(Cl)ncc2O)[C@@H](c2ccccc2)N(C(=O)C2CCCCC2)[C@H]1C(=O)O (racemic) [III-73]
– | – | – | – | < 100 | > 10000 | 1000 to 10000 | ++ (≥150 and <350) | – | – | COc1cc(CN[C@H]2[C@H](C(C)(C)C)[C@@H](C(=O)O)N(C(=O)C3CCCCC3)[C@H]2c2ccccc2)cc(OC)c1 [III-133]
– | – | – | – | < 100 | > 10000 | > 10000 | + (<150) | – | – | COc1cc(Cl)ccc1CN[C@H]1[C@H](C(C)(C)C)[C@@H](C(=O)O)N(C(=O)C2CCCCC2)[C@H]1c1ncccc1OC (racemic) [III-143]

— US20180099931A1 (AbbVie S.à.r.l., priority 2016, published 2018)
